Laboratory results published in the supplement of paper PMC6733853.

Assays:
[1] = target: mu opioid receptor (rat) (UniProt P33535)
[2] = target: delta opioid receptor (rat) (UniProt P33533); assay: Log(tau/KA) transduction coefficient (log10 (M-1)); higher = more effective agonism; details: receptor: rat DOR
[3] = target: mu opioid receptor (rat) (UniProt P33535); assay: as above; details: receptor: rat MOR
[4] = target: delta opioid receptor (human) (UniProt P41143); assay: as above; details: receptor: human DOR
delta opioid receptor (human), sequence (P41143 whole entry): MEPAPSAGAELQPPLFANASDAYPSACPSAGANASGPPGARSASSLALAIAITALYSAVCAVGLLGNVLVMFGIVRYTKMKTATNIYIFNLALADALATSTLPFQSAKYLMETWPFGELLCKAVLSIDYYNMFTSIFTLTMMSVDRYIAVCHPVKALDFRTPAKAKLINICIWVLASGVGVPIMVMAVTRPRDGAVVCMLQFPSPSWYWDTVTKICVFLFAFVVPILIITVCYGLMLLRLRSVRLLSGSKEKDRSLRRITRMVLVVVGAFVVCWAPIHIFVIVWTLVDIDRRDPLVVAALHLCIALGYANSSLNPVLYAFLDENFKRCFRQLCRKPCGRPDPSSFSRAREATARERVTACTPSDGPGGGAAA

[5] = target: mu opioid receptor (human) (UniProt P35372); assay: as above; details: receptor: human MOR
mu opioid receptor (human), sequence (P35372 whole entry): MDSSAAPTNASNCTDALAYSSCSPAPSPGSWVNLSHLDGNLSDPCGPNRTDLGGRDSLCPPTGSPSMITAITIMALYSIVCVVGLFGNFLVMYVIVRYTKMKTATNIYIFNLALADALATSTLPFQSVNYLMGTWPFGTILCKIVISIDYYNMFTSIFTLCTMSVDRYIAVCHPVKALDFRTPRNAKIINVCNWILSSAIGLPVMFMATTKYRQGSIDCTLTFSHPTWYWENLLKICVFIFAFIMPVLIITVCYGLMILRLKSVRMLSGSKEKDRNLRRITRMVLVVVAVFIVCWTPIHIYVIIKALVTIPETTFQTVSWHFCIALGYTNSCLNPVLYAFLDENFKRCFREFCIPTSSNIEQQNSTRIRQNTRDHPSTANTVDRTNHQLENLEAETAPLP

[6] = target: delta opioid receptor (rat) (UniProt P33533)

delta opioid receptor (rat), sequence (P33533 whole entry): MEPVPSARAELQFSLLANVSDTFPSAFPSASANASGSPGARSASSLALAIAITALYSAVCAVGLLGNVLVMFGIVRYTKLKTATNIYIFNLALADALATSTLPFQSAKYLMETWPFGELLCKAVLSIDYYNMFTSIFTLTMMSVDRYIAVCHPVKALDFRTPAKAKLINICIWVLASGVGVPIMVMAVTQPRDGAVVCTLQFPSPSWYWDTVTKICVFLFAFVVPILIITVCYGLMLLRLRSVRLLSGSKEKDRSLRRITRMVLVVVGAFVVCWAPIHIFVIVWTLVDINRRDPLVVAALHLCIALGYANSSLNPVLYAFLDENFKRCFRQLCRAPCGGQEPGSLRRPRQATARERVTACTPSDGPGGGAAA
mu opioid receptor (rat), sequence (P33535 whole entry): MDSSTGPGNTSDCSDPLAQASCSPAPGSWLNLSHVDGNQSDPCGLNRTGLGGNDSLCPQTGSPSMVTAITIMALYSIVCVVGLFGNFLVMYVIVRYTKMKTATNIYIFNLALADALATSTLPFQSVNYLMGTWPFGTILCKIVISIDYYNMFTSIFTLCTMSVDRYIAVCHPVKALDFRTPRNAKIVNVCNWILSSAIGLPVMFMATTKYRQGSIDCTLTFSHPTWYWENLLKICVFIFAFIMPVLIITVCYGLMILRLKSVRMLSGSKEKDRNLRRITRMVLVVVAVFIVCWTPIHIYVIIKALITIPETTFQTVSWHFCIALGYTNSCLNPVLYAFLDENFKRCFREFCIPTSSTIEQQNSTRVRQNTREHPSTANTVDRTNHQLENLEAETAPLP

Row | SMILES | Log(tau/KA) transduction coefficient (log10) ([2]; Gαi1) | Log(tau/KA) transduction coefficient (log10) ([2]; Gαi2) | Log(tau/KA) transduction coefficient (log10) ([2]; Gαo) | Log(tau/KA) transduction coefficient (log10) ([2]; Kir) | Log(tau/KA) transduction coefficient (log10) ([2]; cAMP) | Log(tau/KA) transduction coefficient (log10) ([3]; Gαi1) | Log(tau/KA) transduction coefficient (log10) ([3]; Gαi2) | Log(tau/KA) transduction coefficient (log10) ([3]; Gαo) | Log(tau/KA) transduction coefficient (log10) ([3]; Kir) | Log(tau/KA) transduction coefficient (log10) ([3]; cAMP) | Log(tau/KA) transduction coefficient (log10) ([3]; βarrestine 2) | Log(tau/KA) transduction coefficient (log10) ([3]; βarrestine 2-GRK2) | Log(tau/KA) transduction coefficient (log10) ([3]; βarrestine 2-GRK5) | Log(tau/KA) transduction coefficient (log10) ([4]; Gαi1) | Log(tau/KA) transduction coefficient (log10) ([4]; Gαi2) | Log(tau/KA) transduction coefficient (log10) ([4]; Gαo) | Log(tau/KA) transduction coefficient (log10) ([4]; Kir) | Log(tau/KA) transduction coefficient (log10) ([4]; cAMP) | Log(tau/KA) transduction coefficient (log10) ([4]; βarrestine 2-GRK6) | Log(tau/KA) transduction coefficient (log10) ([3]; βarrestine 2-GRK6) | also measured
1 | CCC1(c2cccc(O)c2)CCCCN(C)C1 (stereo not given) [Meptazinol] (receptor: rat MOR) | – | – | – | – | – | – | – | – | – | – | – | – | – | – | – | – | – | – | – | – | pEC50 ([1]; Gαi1): 5.94; pEC50 ([1]; Gαi2): 6.52; pEC50 ([1]; Gαo): 6.28; pEC50 ([1]; Kir): 6.08; pEC50 ([1]; cAMP): 6.99
2 | CO[C@@]12CC[C@@]3(C[C@@H]1[C@](C)(O)C(C)(C)C)[C@H]1Cc4ccc(O)c5c4[C@@]3(CCN1CC1CC1)[C@H]2O5 [Buprenorphine] | 6.16 | 6.14 | 6.06 | 4.6 | 7.87 | 6.88 | 7.63 | 7.28 | 8.05 | 6.93 | 5.04 | 5.79 | 5.36 | 5.51 | 6.73 | 6.61 | 4.88 | 8.45 | 3.5 | – | –
3 | CN(C)C(=O)C(CCN1CCC(O)(c2ccc(Cl)cc2)CC1)(c1ccccc1)c1ccccc1 [Loperamide] | 4.78 | 5.24 | 5.22 | 5.02 | 5.9 | 7.2 | 8.27 | 7.56 | 6.46 | 7.69 | 5.68 | 6.37 | 6.39 | 4.52 | 5.79 | 5.28 | 5.54 | 7.28 | 4.63 | 6.04 | Log(tau/KA) transduction coefficient (log10) ([2]; βarrestine 1): 3.96; Log(tau/KA) transduction coefficient (log10) ([2]; βarrestine 2): 4.1; Log(tau/KA) transduction coefficient (log10) ([2]; βarrestine 2-GRK2): 4.29; Log(tau/KA) transduction coefficient (log10) ([2]; βarrestine 2-GRK5): 4.61; Log(tau/KA) transduction coefficient (log10) ([2]; βarrestine 2-GRK6): 4.48; Log(tau/KA) transduction coefficient (log10) ([3]; βarrestine 1): 6.08; Log(tau/KA) transduction coefficient (log10) ([4]; βarrestine 1): 4.05; Log(tau/KA) transduction coefficient (log10) ([4]; βarrestine 2): 4.37; Log(tau/KA) transduction coefficient (log10) ([4]; βarrestine 2-GRK2): 4.62; Log(tau/KA) transduction coefficient (log10) ([4]; βarrestine 2-GRK5): 4.71
4 | COc1ccc2c3c1O[C@H]1C(=O)CC[C@@]4(O)[C@@H](C2)N(C)CC[C@]314 [Oxycodone] | 2.98 | 4.41 | 3.8 | 3.29 | 6.08 | 5.49 | 6.52 | 5.91 | 5.97 | 7.45 | – | 4.81 | 5.06 | 3.52 | 5.21 | 4.26 | 3.72 | 6.63 | 3.02 | 4.81 | Log(tau/KA) transduction coefficient (log10) ([2]; βarrestine 2): 3.12; Log(tau/KA) transduction coefficient (log10) ([2]; βarrestine 2-GRK2): 3.16; Log(tau/KA) transduction coefficient (log10) ([2]; βarrestine 2-GRK5): 3.5; Log(tau/KA) transduction coefficient (log10) ([2]; βarrestine 2-GRK6): 3.31; Log(tau/KA) transduction coefficient (log10) ([3]; βarrestine 1): 5.5; Log(tau/KA) transduction coefficient (log10) ([4]; βarrestine 2-GRK2): 3.82; Log(tau/KA) transduction coefficient (log10) ([4]; βarrestine 2-GRK5): 3.15
5 | CN1CC[C@]23c4c5ccc(O)c4O[C@H]2[C@@H](O)C=C[C@H]3[C@H]1C5 [Morphine] | 4.41 | 5.31 | 5.14 | 4.79 | 6.68 | 6.9 | 8.35 | 7.99 | 7.44 | 8.08 | 5.69 | 6.29 | 6.37 | 4.26 | 5.75 | 5.24 | 5.05 | 8.19 | 3.94 | 5.35 | Log(tau/KA) transduction coefficient (log10) ([2]; βarrestine 2): 4.16; Log(tau/KA) transduction coefficient (log10) ([2]; βarrestine 2-GRK2): 4.24; Log(tau/KA) transduction coefficient (log10) ([2]; βarrestine 2-GRK5): 4.53; Log(tau/KA) transduction coefficient (log10) ([2]; βarrestine 2-GRK6): 4.2; Log(tau/KA) transduction coefficient (log10) ([4]; βarrestine 2-GRK5): 4.04
6 | CCC1(c2cccc(O)c2)CCCCN(C)C1 (stereo not given) [Meptazinol] | – | – | – | – | – | 5.15 | 6.21 | 5.38 | 5.41 | 6.58 | – | – | – | – | – | – | – | – | – | – | Log(tau/KA) transduction coefficient (log10) ([5]; Gαi1): 5.23; Log(tau/KA) transduction coefficient (log10) ([5]; Gαi2): 6.1; Log(tau/KA) transduction coefficient (log10) ([5]; Gαo): 6.31; Log(tau/KA) transduction coefficient (log10) ([5]; Kir): 4.84; Log(tau/KA) transduction coefficient (log10) ([5]; cAMP): 8.02
7 | COc1cccc(C2(O)CCCCC2CN(C)C)c1 (stereo not given) [Tramadol] | – | – | – | – | – | 2.98 | 4.73 | 3.82 | 3.81 | 5.02 | – | – | – | – | – | – | – | – | – | – | Log(tau/KA) transduction coefficient (log10) ([5]; Gαi1): 3.39; Log(tau/KA) transduction coefficient (log10) ([5]; Gαi2): 4.54; Log(tau/KA) transduction coefficient (log10) ([5]; Gαo): 4.27; Log(tau/KA) transduction coefficient (log10) ([5]; Kir): 3.78; Log(tau/KA) transduction coefficient (log10) ([5]; cAMP): 6.29
8 | CN(C)C(=O)C(CCN1CCC(O)(c2ccc(Cl)cc2)CC1)(c1ccccc1)c1ccccc1 [Loperamide] (receptor: rat DOR) | – | – | – | – | – | – | – | – | – | – | – | – | – | – | – | – | – | – | – | – | pEC50 ([6]; Gαi1): 5.05; pEC50 ([6]; Gαi2): 5.42; pEC50 ([6]; Gαo): 5.51; pEC50 ([6]; Kir): 5.23; pEC50 ([6]; cAMP): 6.1; pEC50 ([6]; βarrestine 1): 4.55; pEC50 ([6]; βarrestine 2): 4.47; pEC50 ([6]; βarrestine 2-GRK2): 4.36; pEC50 ([6]; βarrestine 2-GRK5): 4.83; pEC50 ([6]; βarrestine 2-GRK6): 4.54
9 | CSCC[C@H](NC(=O)[C@H](Cc1ccccc1)NC(=O)CNC(=O)CNC(=O)[C@@H](N)Cc1ccc(O)cc1)C(=O)O [Met-Enk] | 5.86 | 6.55 | 6.44 | 4.97 | 9.4 | 7.24 | 8.73 | 6.21 | 6.72 | 8.44 | 5.65 | 6.24 | 6.35 | 5.92 | 7.02 | 6.59 | 7.27 | 8.98 | 6.88 | 6.06 | Log(tau/KA) transduction coefficient (log10) ([2]; βarrestine 1): 6.29; Log(tau/KA) transduction coefficient (log10) ([2]; βarrestine 2): 6.58; Log(tau/KA) transduction coefficient (log10) ([2]; βarrestine 2-GRK2): 6.67; Log(tau/KA) transduction coefficient (log10) ([2]; βarrestine 2-GRK5): 7.03; Log(tau/KA) transduction coefficient (log10) ([2]; βarrestine 2-GRK6): 6.83; Log(tau/KA) transduction coefficient (log10) ([3]; βarrestine 1): 5.63; Log(tau/KA) transduction coefficient (log10) ([5]; Gαi1): 6.47; Log(tau/KA) transduction coefficient (log10) ([5]; Gαi2): 7.32; Log(tau/KA) transduction coefficient (log10) ([5]; Gαo): 7.4; Log(tau/KA) transduction coefficient (log10) ([5]; Kir): 6.58; Log(tau/KA) transduction coefficient (log10) ([5]; cAMP): 8.62; Log(tau/KA) transduction coefficient (log10) ([5]; βarrestine 1): 5.9; Log(tau/KA) transduction coefficient (log10) ([5]; βarrestine 2): 5.97; Log(tau/KA) transduction coefficient (log10) ([5]; βarrestine 2-GRK2): 6.66; Log(tau/KA) transduction coefficient (log10) ([5]; βarrestine 2-GRK5): 6.65; Log(tau/KA) transduction coefficient (log10) ([5]; βarrestine 2-GRK6): 6.36; Log(tau/KA) transduction coefficient (log10) ([4]; βarrestine 1): 6.24; Log(tau/KA) transduction coefficient (log10) ([4]; βarrestine 2): 6.28; Log(tau/KA) transduction coefficient (log10) ([4]; βarrestine 2-GRK2): 6.57; Log(tau/KA) transduction coefficient (log10) ([4]; βarrestine 2-GRK5): 7.12
10 | C[C@@H](NC(=O)[C@@H](N)Cc1ccc(O)cc1)C(=O)NCC(=O)N(C)[C@@H](Cc1ccccc1)C(=O)NCCO [DAMGO] | – | – | – | – | – | 6.18 | 7.5 | 6.49 | 7.11 | 8.44 | 5.51 | 6.21 | 6.26 | – | – | – | – | – | – | 5.9 | Log(tau/KA) transduction coefficient (log10) ([3]; βarrestine 1): 5.59
11 | CO[C@@]12CC[C@@]3(C[C@@H]1[C@](C)(O)C(C)(C)C)[C@H]1Cc4ccc(O)c5c4[C@@]3(CCN1CC1CC1)[C@H]2O5 [Buprenorphine] (receptor: rat DOR) | – | – | – | – | – | – | – | – | – | – | – | – | – | – | – | – | – | – | – | – | pEC50 ([6]; Gαi1): 7.49; pEC50 ([6]; Gαi2): 6.88; pEC50 ([6]; Gαo): 7.28; pEC50 ([6]; Kir): 5.53; pEC50 ([6]; cAMP): 7.78
